Test results reported in ChEMBL document CHEMBL5291721, “A preclinical secondary pharmacology resource illuminates target-adverse drug reaction associations of marketed drugs” (Nat Commun, 2023).
Values belong to the compound of their own block, whether it stands above or below them.

Tests used:
D(1A) dopamine receptor = D(1A) dopamine receptor (Homo sapiens, UniProt P21728); type: functional, cell-based
[1] = target: T1, Gamma-aminobutyric acid receptor subunit alpha-1/alpha-2/beta-2/gamma-2 (Homo sapiens, UniProt P14867+P18507+P47869+P47870); type: functional, cell-based
T1 sequence (P14867 whole entry): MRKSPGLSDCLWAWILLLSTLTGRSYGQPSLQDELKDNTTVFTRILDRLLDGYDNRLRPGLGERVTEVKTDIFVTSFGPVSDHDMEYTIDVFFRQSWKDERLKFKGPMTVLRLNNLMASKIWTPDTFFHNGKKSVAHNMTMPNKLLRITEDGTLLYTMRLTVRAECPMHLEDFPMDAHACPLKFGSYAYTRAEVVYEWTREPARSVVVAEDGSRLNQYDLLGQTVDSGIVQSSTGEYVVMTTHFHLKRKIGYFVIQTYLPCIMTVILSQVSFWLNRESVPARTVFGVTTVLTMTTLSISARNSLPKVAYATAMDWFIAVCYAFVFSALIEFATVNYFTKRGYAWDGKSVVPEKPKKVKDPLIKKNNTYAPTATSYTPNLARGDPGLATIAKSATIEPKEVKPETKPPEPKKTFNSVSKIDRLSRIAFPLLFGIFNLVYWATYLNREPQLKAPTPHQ
T1 sequence (P47870 whole entry): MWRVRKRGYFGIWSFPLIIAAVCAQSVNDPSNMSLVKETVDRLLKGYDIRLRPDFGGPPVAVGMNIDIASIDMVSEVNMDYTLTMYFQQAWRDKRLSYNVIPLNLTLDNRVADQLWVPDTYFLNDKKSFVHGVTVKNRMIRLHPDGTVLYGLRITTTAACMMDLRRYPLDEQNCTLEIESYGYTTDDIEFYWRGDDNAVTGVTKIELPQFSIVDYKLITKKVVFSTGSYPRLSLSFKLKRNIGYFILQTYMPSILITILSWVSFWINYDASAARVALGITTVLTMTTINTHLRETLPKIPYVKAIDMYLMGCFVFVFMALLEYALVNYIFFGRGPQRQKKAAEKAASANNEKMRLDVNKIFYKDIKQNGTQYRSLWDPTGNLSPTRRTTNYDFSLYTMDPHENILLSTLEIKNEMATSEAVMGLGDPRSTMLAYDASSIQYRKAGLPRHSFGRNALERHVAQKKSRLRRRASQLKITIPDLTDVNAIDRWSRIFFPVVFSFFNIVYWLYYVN
T1 sequence (P18507 whole entry): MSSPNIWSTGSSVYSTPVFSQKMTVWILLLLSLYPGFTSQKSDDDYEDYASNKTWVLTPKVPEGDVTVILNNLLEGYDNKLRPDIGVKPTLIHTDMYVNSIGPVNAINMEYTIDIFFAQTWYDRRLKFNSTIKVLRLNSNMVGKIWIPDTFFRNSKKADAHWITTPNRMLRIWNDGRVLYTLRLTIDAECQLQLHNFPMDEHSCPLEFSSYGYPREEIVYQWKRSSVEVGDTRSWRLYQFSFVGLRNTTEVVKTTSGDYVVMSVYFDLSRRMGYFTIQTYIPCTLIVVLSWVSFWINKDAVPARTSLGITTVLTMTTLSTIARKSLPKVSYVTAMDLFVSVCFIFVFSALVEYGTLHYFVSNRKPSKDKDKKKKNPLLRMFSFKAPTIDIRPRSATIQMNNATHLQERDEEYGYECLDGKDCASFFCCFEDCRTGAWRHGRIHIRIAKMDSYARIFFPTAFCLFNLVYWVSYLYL
T1 sequence (P47869 whole entry): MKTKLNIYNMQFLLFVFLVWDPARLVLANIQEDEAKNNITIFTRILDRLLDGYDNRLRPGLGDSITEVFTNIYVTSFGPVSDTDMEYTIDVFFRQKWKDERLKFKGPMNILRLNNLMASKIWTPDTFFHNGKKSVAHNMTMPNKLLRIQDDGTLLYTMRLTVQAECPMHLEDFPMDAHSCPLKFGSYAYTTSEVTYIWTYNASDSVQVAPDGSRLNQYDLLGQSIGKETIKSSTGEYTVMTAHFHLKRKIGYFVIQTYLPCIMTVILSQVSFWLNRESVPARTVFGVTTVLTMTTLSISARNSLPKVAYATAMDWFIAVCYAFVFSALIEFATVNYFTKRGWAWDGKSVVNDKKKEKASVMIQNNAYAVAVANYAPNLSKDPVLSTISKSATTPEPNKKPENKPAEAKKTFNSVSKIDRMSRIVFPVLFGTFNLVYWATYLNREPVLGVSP

[2] = target: T1, Gamma-aminobutyric acid receptor subunit alpha-1/alpha-2/beta-2/gamma-2; type: protein-complex assay
[3] = target: T2, Corticotropin-releasing factor receptor 2 (Homo sapiens, UniProt Q13324)
T2 sequence (Q13324 whole entry): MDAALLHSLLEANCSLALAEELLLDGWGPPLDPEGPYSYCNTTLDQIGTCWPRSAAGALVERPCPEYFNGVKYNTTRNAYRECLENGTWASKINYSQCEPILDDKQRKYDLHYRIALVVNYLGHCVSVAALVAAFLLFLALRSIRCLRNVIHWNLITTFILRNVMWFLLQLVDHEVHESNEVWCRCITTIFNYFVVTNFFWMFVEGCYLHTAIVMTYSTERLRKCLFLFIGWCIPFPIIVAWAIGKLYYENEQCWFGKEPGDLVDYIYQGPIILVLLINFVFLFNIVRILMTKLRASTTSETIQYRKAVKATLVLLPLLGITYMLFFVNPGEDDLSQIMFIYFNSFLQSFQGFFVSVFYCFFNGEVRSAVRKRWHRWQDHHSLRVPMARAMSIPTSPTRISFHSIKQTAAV

D(4) dopamine receptor = target: T3, D(4) dopamine receptor (Homo sapiens, UniProt P21917)
T3 sequence (P21917 whole entry): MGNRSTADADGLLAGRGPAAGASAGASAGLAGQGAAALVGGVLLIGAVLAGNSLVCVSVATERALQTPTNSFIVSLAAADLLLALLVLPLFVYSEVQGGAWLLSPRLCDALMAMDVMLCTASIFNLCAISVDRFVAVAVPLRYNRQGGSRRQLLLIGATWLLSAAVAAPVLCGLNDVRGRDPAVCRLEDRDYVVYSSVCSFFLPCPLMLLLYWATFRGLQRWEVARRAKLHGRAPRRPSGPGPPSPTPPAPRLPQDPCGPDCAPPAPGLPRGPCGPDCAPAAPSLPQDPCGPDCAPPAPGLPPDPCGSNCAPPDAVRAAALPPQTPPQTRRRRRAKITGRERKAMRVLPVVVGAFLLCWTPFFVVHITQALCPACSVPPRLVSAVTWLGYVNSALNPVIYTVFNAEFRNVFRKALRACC

Estrogen receptor = target: T4, Estrogen receptor (Homo sapiens, UniProt P03372)
T4 sequence (P03372 whole entry): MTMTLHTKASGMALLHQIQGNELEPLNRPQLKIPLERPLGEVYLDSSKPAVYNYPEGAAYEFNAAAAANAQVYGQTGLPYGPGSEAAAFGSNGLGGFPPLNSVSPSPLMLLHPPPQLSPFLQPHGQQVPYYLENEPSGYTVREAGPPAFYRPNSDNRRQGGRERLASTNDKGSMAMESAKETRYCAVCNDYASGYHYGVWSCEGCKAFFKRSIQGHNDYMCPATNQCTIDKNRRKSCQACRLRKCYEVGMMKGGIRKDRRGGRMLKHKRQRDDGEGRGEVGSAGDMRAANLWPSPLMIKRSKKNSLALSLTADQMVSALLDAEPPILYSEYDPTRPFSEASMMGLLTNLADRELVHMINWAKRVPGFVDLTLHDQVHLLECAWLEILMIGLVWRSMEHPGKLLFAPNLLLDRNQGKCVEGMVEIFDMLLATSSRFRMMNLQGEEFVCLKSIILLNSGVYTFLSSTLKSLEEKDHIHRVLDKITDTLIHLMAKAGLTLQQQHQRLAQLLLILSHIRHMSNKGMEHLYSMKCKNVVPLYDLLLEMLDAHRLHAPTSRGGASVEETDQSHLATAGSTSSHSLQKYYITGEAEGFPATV

[4] = target: T5, Gastric inhibitory polypeptide receptor (Homo sapiens, UniProt P48546)
T5 sequence (P48546 whole entry): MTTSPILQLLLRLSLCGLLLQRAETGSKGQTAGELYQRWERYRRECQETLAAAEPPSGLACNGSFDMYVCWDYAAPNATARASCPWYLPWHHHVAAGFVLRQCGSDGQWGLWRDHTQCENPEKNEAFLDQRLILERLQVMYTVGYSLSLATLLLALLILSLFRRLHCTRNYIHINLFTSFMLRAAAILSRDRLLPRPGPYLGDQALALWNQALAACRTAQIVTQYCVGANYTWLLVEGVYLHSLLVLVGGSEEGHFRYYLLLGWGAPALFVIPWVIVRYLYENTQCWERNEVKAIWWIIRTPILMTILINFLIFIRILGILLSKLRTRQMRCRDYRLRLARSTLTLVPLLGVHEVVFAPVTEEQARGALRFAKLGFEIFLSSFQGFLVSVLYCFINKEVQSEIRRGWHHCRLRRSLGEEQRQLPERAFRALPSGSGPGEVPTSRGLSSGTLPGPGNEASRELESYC

[5] = target: 5-hydroxytryptamine receptor 7 (Homo sapiens, UniProt P34969)
Sequence of 5-hydroxytryptamine receptor 7 (P34969 whole entry): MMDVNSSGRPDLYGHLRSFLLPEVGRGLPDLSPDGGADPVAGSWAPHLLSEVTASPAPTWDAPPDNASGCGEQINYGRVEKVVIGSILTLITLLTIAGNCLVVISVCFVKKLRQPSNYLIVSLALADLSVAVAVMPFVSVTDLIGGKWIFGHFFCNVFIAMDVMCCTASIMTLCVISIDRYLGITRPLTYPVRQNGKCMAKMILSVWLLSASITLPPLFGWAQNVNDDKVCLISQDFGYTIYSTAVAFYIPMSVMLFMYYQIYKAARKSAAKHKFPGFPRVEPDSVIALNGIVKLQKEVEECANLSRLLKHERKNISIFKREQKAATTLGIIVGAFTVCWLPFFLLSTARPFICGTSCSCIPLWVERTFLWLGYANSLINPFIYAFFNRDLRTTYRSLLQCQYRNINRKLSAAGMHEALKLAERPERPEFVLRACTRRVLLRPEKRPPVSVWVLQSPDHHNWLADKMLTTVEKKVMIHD

[6] = target: T6, Muscarinic acetylcholine receptor M2 (Homo sapiens, UniProt P08172)
T6 sequence (P08172 whole entry): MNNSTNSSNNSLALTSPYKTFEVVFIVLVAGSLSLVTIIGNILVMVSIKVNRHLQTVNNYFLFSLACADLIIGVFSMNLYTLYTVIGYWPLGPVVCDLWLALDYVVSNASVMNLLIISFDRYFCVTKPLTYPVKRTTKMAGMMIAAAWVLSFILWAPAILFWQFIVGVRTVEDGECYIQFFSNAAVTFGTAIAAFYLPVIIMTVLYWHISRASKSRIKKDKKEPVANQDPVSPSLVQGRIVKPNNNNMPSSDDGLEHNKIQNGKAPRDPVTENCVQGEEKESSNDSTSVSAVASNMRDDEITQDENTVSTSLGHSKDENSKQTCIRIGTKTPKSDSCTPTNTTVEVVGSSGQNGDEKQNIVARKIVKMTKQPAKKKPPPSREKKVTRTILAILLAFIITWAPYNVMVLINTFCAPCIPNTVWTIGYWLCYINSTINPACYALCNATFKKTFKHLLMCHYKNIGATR
Further: assay procedure not described here.

Sequence of D(1A) dopamine receptor (P21728 whole entry): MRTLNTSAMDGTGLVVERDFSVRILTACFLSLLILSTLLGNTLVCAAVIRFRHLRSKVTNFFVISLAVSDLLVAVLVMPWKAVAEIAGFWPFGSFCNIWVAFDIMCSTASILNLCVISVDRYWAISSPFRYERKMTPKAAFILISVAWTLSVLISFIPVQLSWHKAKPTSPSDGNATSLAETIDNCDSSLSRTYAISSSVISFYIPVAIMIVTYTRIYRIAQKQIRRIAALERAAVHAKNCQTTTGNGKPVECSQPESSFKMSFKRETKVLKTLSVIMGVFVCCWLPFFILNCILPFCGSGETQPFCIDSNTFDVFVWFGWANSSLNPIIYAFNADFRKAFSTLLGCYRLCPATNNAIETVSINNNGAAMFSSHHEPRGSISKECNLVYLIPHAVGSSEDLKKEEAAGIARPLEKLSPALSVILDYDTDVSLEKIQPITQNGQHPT

SMILES: N[C@@H]1[C@H]2CN(c3nc4c(cc3F)c(=O)c(C(=O)O)cn4-c3ccc(F)cc3F)C[C@@H]12 [TROVAFLOXACIN]
AC50 (D(1A) dopamine receptor): > 30 µM | AC50 [1]: > 30 µM

SMILES: CC(=O)N[C@@H]1[C@@H](O)[C@H](O)[C@@H](CO)O[C@H]1O [N-ACETYLGLUCOSAMINE]
AC50 [2]: > 30 µM

SMILES: O=C(Cc1ccc(-c2ccccc2)cc1)Nc1ccccn1 [DIFENPIRAMIDE]
AC50 [1]: > 30 µM

SMILES: CCOC(=O)[C@H](CCc1ccccc1)N[C@@H](C)C(=O)N1[C@H](C(=O)O)C[C@H]2CCCC[C@@H]21 [TRANDOLAPRIL]
AC50 [2]: > 30 µM

SMILES: CC(=O)Nc1ccc(O)cc1 [ACETAMINOPHEN]
AC50 [1]: > 30 µM | AC50 [2]: > 30 µM

SMILES: CC[C@H]1OC(=O)[C@H](C)[C@@H](O[C@H]2C[C@@](C)(OC)[C@@H](O)[C@H](C)O2)[C@H](C)[C@@H](O[C@@H]2O[C@H](C)C[C@H](N(C)C)[C@H]2O)[C@](C)(O)C[C@@H](C)CN(C)[C@H](C)[C@@H](O)[C@]1(C)O [AZITHROMYCIN]
AC50 [3]: > 30 µM | AC50 (D(4) dopamine receptor): > 10 µM | AC50 (Estrogen receptor): > 30 µM | AC50 [4]: > 30 µM | AC50 [5]: > 10 µM | AC50 [6]: > 10 µM

AC50 (D(1A) dopamine receptor): > 30 µM | AC50 [1]: > 30 µM
SMILES: CNC(=O)c1ccccc1Sc1ccc2c(/C=C/c3ccccn3)n[nH]c2c1 [AXITINIB]

AC50 (Estrogen receptor): > 30 µM
SMILES: CCCCN1C[C@H](O)[C@@H](O)[C@H](O)[C@H]1CO

SMILES: CCC1=C(C)CN(C(=O)NCCc2ccc(S(=O)(=O)NC(=O)N[C@H]3CC[C@H](C)CC3)cc2)C1=O [GLIMEPIRIDE]
AC50 [2]: > 30 µM

AC50 (Estrogen receptor): > 30 µM
SMILES: COc1cc2nc(N(C)CCCNC(=O)C3CCCO3)nc(N)c2cc1OC (stereo not given) [ALFUZOSIN]

AC50 [1]: > 30 µM
SMILES: Nc1nc(NC2CC2)c2ncn([C@H]3C=C[C@@H](CO)C3)c2n1 [ABACAVIR]

SMILES: CC(C)(C)NC[C@H](O)COc1ccccc1C1CCCC1 [PENBUTOLOL]
AC50 [2]: > 30 µM

SMILES: N[C@H](C(=O)O)[C@H](O)c1ccc(O)c(O)c1 [DROXIDOPA]
AC50 [2]: > 30 µM

SMILES: O=C(CCNNC(=O)c1ccncc1)NCc1ccccc1 [NIALAMIDE]
AC50 [2]: > 30 µM

SMILES: O=C(O)c1cc(O)ccc1O [GENTISIC ACID]
AC50 [2]: > 30 µM

AC50 (Estrogen receptor): > 30 µM
SMILES: CN1C(C(=O)Nc2ccccn2)=C(O)c2sc(Cl)cc2S1(=O)=O [LORNOXICAM]

SMILES: C[C@]12CC[C@@H]3c4ccc(O)cc4CC[C@H]3[C@@H]1C[C@@H](O)[C@@H]2O [ESTRIOL]
AC50 [2]: > 30 µM

SMILES: Oc1c(Cl)cc(Cl)c2cccnc12 [CHLOROXINE]
AC50 [2]: > 30 µM

SMILES: CC[N+]1(C)[C@@H]2CC(OC(=O)[C@H](CO)c3ccccc3)C[C@H]1[C@@H]1O[C@@H]12 (stereo not given in full) [OXITROPIUM]
AC50 [2]: > 30 µM

SMILES: CO[C@H]1C[C@@H]2CC[C@@H](C)[C@@](O)(O2)C(=O)C(=O)N2CCCC[C@H]2C(=O)O[C@H]([C@H](C)C[C@@H]2CC[C@@H](O)[C@H](OC)C2)CC(=O)[C@H](C)/C=C(\C)[C@@H](O)[C@@H](OC)C(=O)[C@H](C)C[C@H](C)/C=C/C=C/C=C/1C [SIROLIMUS]
AC50 [3]: > 30 µM | AC50 (Estrogen receptor): > 30 µM | AC50 [4]: > 30 µM

AC50 [3]: > 30 µM | AC50 (D(4) dopamine receptor): > 10 µM | AC50 [4]: > 30 µM | AC50 [5]: > 10 µM | AC50 [6]: 5.52 µM
SMILES: CN(C)CCC(c1ccc(Cl)cc1)c1ccccn1 (stereo not given) [CHLORPHENIRAMINE]
